Measured values as given in patent publication US9656988B2 (Pharmacyclics LLC, priority 2013, dated 2017).
pIC50: −log10 of the molar value. Like-named read-outs stand apart in the source and are kept apart here.

Target: BTK (Homo sapiens (Human), UniProt Q06187)
Assay: Btk in vitro inhibitory activity (one of Method A TR-FRET, Method B electrophoretic mobility shift, Method C radiometric filter binding)
Format: biochemical
[1] = determined using one of the methods of Example 355a, 355b and 355c, read-out: BTK IC50

Sequence of BTK (Q06187 whole entry): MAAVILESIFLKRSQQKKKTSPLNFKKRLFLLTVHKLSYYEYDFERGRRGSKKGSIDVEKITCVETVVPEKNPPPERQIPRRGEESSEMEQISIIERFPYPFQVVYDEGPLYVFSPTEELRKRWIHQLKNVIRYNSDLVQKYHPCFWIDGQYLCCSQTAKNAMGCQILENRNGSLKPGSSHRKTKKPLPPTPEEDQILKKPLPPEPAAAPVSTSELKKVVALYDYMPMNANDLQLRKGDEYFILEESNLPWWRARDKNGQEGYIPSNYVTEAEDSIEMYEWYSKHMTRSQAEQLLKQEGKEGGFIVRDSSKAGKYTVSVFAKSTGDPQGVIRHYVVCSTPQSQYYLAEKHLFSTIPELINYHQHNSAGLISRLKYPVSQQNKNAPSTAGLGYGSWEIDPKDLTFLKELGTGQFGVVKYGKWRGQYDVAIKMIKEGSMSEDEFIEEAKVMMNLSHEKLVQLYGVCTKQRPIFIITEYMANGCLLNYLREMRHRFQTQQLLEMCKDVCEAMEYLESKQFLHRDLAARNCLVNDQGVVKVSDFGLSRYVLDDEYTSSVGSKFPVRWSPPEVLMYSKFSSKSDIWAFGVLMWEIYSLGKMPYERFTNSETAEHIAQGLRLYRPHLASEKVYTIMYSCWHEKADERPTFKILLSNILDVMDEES

Compound	pIC50 [1]	pIC50 (read-out: Btk (IC50))	pIC50 (Btk (IC50))
CN1CCC(c2ccc(Nc3nc(N4CCC[C@@H](NC(=O)N5CCCCC5)C4)cnc3C(N)=O)cc2)CC1 [Example 147, (R)-3-(4-(1-methylpiperidin-4-yl)phenylamino)-5-(3-(piperidine-1-carboxamido)piperidin-1-yl)pyrazine-2-carboxamide]	> 8.00	> 8.00	–
NC(=O)c1ncc(N2CCC[C@@H](NC(=O)N3CCCCC3)C2)nc1Nc1ccc(C2CCN(C=O)CC2)cc1 [Example 148, (R)-3-(4-(1-formylpiperidin-4-yl)phenylamino)-5-(3-(piperidine-1-carboxamido)piperidin-1-yl)pyrazine-2-carboxamide]	> 8.00	> 8.00	–
CCC(=O)N1CCC(c2ccc(Nc3nc(N4CCC[C@@H](NC(=O)N5CCCCC5)C4)cnc3C(N)=O)cc2)CC1 [Example 149, (R)-5-(3-(piperidine-1-carboxamido)piperidin-1-yl)-3-(4-(1-propionylpiperidin-4-yl)phenylamino)pyrazine-2-carboxamide]	7.00 to 8.00	–	7.00 to 8.00
N#CCC(=O)N1CCC(c2ccc(Nc3nc(N4CCC[C@@H](NC(=O)N5CCCCC5)C4)cnc3C(N)=O)cc2)CC1 [Example 150, (R)-3-(4-(1-(2-cyanoacetyl)piperidin-4-yl)phenylamino)-5-(3-(piperidine-1-carboxamido)piperidin-1-yl)pyrazine-2-carboxamide]	> 8.00	> 8.00	–
CN(C)C(=O)N[C@@H]1CCCN(c2cnc(C(N)=O)c(Nc3ccc(S(C)(=O)=O)cc3)n2)C1 [Example 151, (R)-5-(3-(3,3-dimethylureido)piperidin-1-yl)-3-(4-(methylsulfonyl)phenylamino)pyrazine-2-carboxamide]	> 8.00	> 8.00	–
CCC(=O)N1CCC(c2ccc(Nc3nc(N4CCC[C@@H](NC(=O)N(C)C)C4)cnc3C(N)=O)cc2)CC1 [Example 152, (R)-5-(3-(3,3-dimethylureido)piperidin-1-yl)-3-(4-(1-propionylpiperidin-4-yl)phenylamino)pyrazine-2-carboxamide]	> 8.00	> 8.00	–
CN(C)C(=O)N[C@@H]1CCCN(c2cnc(C(N)=O)c(Nc3ccc(C4CCN(C(=O)CC#N)CC4)cc3)n2)C1 [Example 153, (R)-3-(4-(1-(2-cyanoacetyl)piperidin-4-yl)phenylamino)-5-(3-(3,3-dimethylureido)piperidin-1-yl)pyrazine-2-carboxamide]	> 8.00	> 8.00	–
CN(C)C(=O)N[C@@H]1CCCN(c2cnc(C(N)=O)c(Nc3ccc(C4CCNCC4)cc3)n2)C1 [Example 154, (R)-5-(3-(3,3-dimethylureido)piperidin-1-yl)-3-(4-(piperidin-4-yl)phenylamino)pyrazine-2-carboxamide]	> 8.00	–	–
CN(C)C(=O)N[C@@H]1CCCN(c2cnc(C(N)=O)c(Nc3ccc(C4CCN(C5CCCC5)CC4)cc3)n2)C1 [Example 155, (R)-3-(4-(1-cyclopentylpiperidin-4-yl)phenylamino)-5-(3-(3,3-dimethylureido)piperidin-1-yl)pyrazine-2-carboxamide]	> 8.00	> 8.00	–
CN(C/C=C/C(=O)N1CCC[C@@H](N(C)c2cnc(C(N)=O)c(Nc3ccc(C(=O)N4CCOCC4)cc3)n2)C1)C1CC1 [Example 156, (R,E)-5-((1-(4-(cyclopropyl(methyl)amino)but-2-enoyl)piperidin-3-yl)(methyl)amino)-3-(4-(morpholine-4-carbonyl)phenylamino)pyrazine-2-carboxamide]	> 8.00	> 8.00	–
CC#CC(=O)N1CCC[C@@H](N(C)c2cnc(C(N)=O)c(Nc3ccc(C(=O)N4CCOCC4)cc3)n2)C1 [Example 157, (R)-5-((1-but-2-ynoylpiperidin-3-yl)(methyl)amino)-3-(4-(morpholine-4-carbonyl)phenylamino)pyrazine-2-carboxamide]	> 8.00	> 8.00	–
CN(C)C/C=C/C(=O)N1CCC[C@@H](N(C)c2cnc(C(N)=O)c(Nc3ccc(Oc4ccccc4)cc3)n2)C1 [Example 158, (R,E)-5-((1-(4-(dimethylamino)but-2-enoyl)piperidin-3-yl)(methyl)amino)-3-(4-phenoxyphenylamino)pyrazine-2-carboxamide]	> 8.00	–	–
CCOc1ccc(C(=O)N[C@@H]2CCCN(c3nnc(C(N)=O)c(Nc4ccc(C#N)cc4)n3)C2)cc1 [Example 159, (R)-5-(4-cyanophenylamino)-3-(3-(4-ethoxybenzamido)piperidin-1-yl)-1,2,4-triazine-6-carboxamide]	6.00 to 7.00	–	6.00 to 7.00
COc1ccc(C(=O)N[C@@H]2CCCN(c3cnc(C(N)=O)c(Nc4ccc(C(C)C)cc4)n3)C2)cc1 [Example 160, (R)-3-(4-isopropylphenylamino)-5-(3-(4-methoxybenzamido)piperidin-1-yl)pyrazine-2-carboxamide]	7.00 to 8.00	–	–
COc1ccc(C(=O)N[C@@H]2CCCN(c3cnc(C(N)=O)c(Nc4ccc(N5CCS(=O)(=O)CC5)cc4)n3)C2)cc1 [Example 161, (R)-5-(3-(4-methoxybenzamido)piperidin-1-yl)-3-(4-(1,1-dioxothiomorpholino)phenylamino)pyrazine-2-carboxamide]	> 8.00	> 8.00	–
COc1ccc(C(=O)N[C@@H]2CCCN(c3cnc(C(N)=O)c(Nc4ccc(C5CCNCC5)cc4F)n3)C2)cc1 [Example 162, (R)-3-(2-fluoro-4-(piperidin-4-yl)phenylamino)-5-(3-(4-methoxybenzamido)piperidin-1-yl)pyrazine-2-carboxamide]	> 8.00	7.00 to 8.00	–
COc1ccc(C(=O)N[C@@H]2CCCN(c3cnc(C(N)=O)c(Nc4ccc(C5CCNCC5)c(F)c4)n3)C2)cc1 [Example 163, (R)-3-(3-fluoro-4-(piperidin-4-yl)phenylamino)-5-(3-(4-methoxybenzamido)piperidin-1-yl)pyrazine-2-carboxamide]	> 8.00	> 8.00	–
COc1ccc(C(=O)N[C@@H]2CCCN(c3cnc(C(N)=O)c(Nc4ccc(N5CCCCC5)cc4)n3)C2)cc1 [Example 164, (R)-5-(3-(4-methoxybenzamido)piperidin-1-yl)-3-(4-(piperidin-1-yl)phenylamino)pyrazine-2-carboxamide]	> 8.00	–	–
CN1CCC(c2ccc(Nc3nc(N4CCC[C@@H](NC(=O)N(C)C)C4)cnc3C(N)=O)cc2)CC1 [Example 165]	> 8.00	–	–
CCN(C)C(=O)N[C@@H]1CCCN(c2cnc(C(N)=O)c(Nc3ccc(C4CCN(C)CC4)cc3)n2)C1 [Example 166, (R)-5-(3-(3-ethyl-3-methylureido)piperidin-1-yl)-3-(4-(1-methylpiperidin-4-yl)phenylamino)pyrazine-2-carboxamide]	> 8.00	–	–
CCN(CC)C(=O)N[C@@H]1CCCN(c2cnc(C(N)=O)c(Nc3ccc(C4CCN(C)CC4)cc3)n2)C1 [Example 167, (R)-5-(3-(3,3-diethylureido)piperidin-1-yl)-3-(4-(1-methylpiperidin-4-yl)phenylamino)pyrazine-2-carboxamide]	> 8.00	> 8.00	–
CN1CCC(c2ccc(Nc3nc(N4CCC[C@@H](NC(=O)c5ccc(F)cc5)C4)cnc3C(N)=O)cc2)CC1 [Example 168, (R)-5-(3-(4-fluorobenzamido)piperidin-1-yl)-3-(4-(1-methylpiperidin-4-yl)phenylamino)pyrazine-2-carboxamide]	> 8.00	> 8.00	–
CCOc1ccc(C(=O)N[C@@H]2CCCN(c3cnc(C(N)=O)c(Nc4ccc(C5CCN(C)CC5)cc4)n3)C2)cc1 [Example 169, (R)-5-(3-(4-ethoxybenzamido)piperidin-1-yl)-3-(4-(1-methylpiperidin-4-yl)phenylamino)pyrazine-2-carboxamide]	> 8.00	–	–
CN(C)C(=O)N[C@@H]1CCCN(c2cnc(C(N)=O)c(Nc3ccc(C4CCN(C(=O)N(C)C)CC4)cc3)n2)C1 [Example 170, (R)-3-(4-(1-(dimethylcarbamoyl)piperidin-4-yl)phenylamino)-5-(3-(3,3-dimethylureido)piperidin-1-yl)pyrazine-2-carboxamide]	> 8.00	> 8.00	–
CN(C)C(=O)N[C@@H]1CCCN(c2cnc(C(N)=O)c(Nc3ccc(C4CCN(C(=O)C5CC5)CC4)cc3)n2)C1 [Example 171, (R)-3-(4-(1-(cyclopropanecarbonyl)piperidin-4-yl)phenylamino)-5-(3-(3,3-dimethylureido)piperidin-1-yl)pyrazine-2-carboxamide]	> 8.00	> 8.00	–
CN(C)C(=O)N[C@@H]1CCCN(c2cnc(C(N)=O)c(Nc3ccc(C4CCN(S(C)(=O)=O)CC4)cc3)n2)C1 [Example 172, (R)-5-(3-(3,3-dimethylureido)piperidin-1-yl)-3-(4-(1-(methylsulfonyl)piperidin-4-yl)phenylamino)pyrazine-2-carboxamide]	> 8.00	> 8.00	–
CN(C)C(=O)N[C@@H]1CCCN(c2cnc(C(N)=O)c(Nc3ccc(C4CCN(S(=O)(=O)N(C)C)CC4)cc3)n2)C1 [Example 173, (R)-3-(4-(1-(N,N-dimethylsulfamoyl)piperidin-4-yl)phenylamino)-5-(3-(3,3-dimethylureido)piperidin-1-yl)pyrazine-2-carboxamide]	7.00 to 8.00	–	7.00 to 8.00
CN(C)C(=O)N[C@@H]1CCCN(c2cnc(C(N)=O)c(Nc3ccc(C4CCN(c5ccccn5)CC4)cc3)n2)C1 [Example 174, (R)-5-(3-(3,3-dimethylureido)piperidin-1-yl)-3-(4-(1-(pyridin-2-yl)piperidin-4-yl)phenylamino)pyrazine-2-carboxamide]	7.00 to 8.00	7.00 to 8.00	–
CN(C)C(=O)N[C@@H]1CCCN(c2cnc(C(N)=O)c(Nc3ccc(C4CCN(C5CCC5)CC4)cc3)n2)C1 [Example 175, (R)-3-(4-(1-cyclobutylpiperidin-4-yl)phenylamino)-5-(3-(3,3-dimethylureido)piperidin-1-yl)pyrazine-2-carboxamide]	> 8.00	> 8.00	–
CN(C)C(=O)N[C@@H]1CCCN(c2cnc(C(N)=O)c(Nc3ccc(C4CCN(C5CCOCC5)CC4)cc3)n2)C1 [Example 176, (R)-5-(3-(3,3-dimethylureido)piperidin-1-yl)-3-(4-(1-(tetrahydro-2H-pyran-4-yl)piperidin-4-yl)phenylamino)pyrazine-2-carboxamide]	> 8.00	> 8.00	–
